What follows are compounds tested on HCV Huh-luc/neo-ET replicon cells (assay: Luciferase-Based HCV Replicon Assay (EC50 (1b))). Details: 72 hours exposure, luciferase activity.
Assay type: cell-based
Procedure: Luciferase-Based HCV Replicon Assay Protocol (EC50 (1b))
The cell culture component of the assay was performed essentially as described by Bartenschlager et al., Hepatology 2002, 35, 694-703, wherein exponentially growing HCV Huh-luc/neo-ET replicon cells were seeded at 6×10^3 cells/well in 96 well assay plate. 24 hours later the cells were treated with various concentrations of compound in triplicate. After 72 hours exposure to the compound, the luciferase activity in the wells was determined using Bright-Glo reagent (Promega, Madison, Wis.) with a luminometer (Wallac 1420 Multilabel HTS Counter Victor 2). The background control was replicon cells treated with 100 nM BILN-2061, an inhibitor of the HCV protease. % Inhibition was determined for each compound concentration in relation to the negative (no compound) control to calculate the EC50 (1b).

With `CS(=O)(=O)NCc1csc2c1S(=O)(=O)N=C(C1=C(O)C3C4CCC(C5CC54)C3N(Cc3ccc(F)cc3)C1=O)N2` (racemic) [Example 23, (rac-di-exo)-N-{3-[3-(4-Fluoro-benzyl)-6-hydroxy-4-oxo-3-aza-tetracyclo[6.3.2.0^2,7.0^9,11]tridec-5-en-5-yl]-1,1-dioxo-1,4-dihydro-1λ^6-thieno[2,3-e][1,2,4]thiadiazin-7-ylmethyl}-methanesulfonamide] as the compound, how does the EC50 read?
The EC50 was ≤ 5 nM.

With `CC(C)(C)CCN1C(=O)C(C2=NS(=O)(=O)c3c(CNS(C)(=O)=O)csc3N2)=C(O)C2C3CCC(C4CC43)C21` (racemic) [Example 25, (rac-di-exo)-N-{3-[3-(3,3-Dimethyl-butyl)-6-hydroxy-4-oxo-3-aza-tetracyclo[6.3.2.0^2,7.0^9,11]tridec-5-en-5-yl]-1,1-dioxo-1,4-dihydro-1λ^6-thieno[2,3-e][1,2,4]thiadiazin-7-ylmethyl}-methanesulfonamide] as the compound, how does the EC50 read?
The EC50 was ≤ 5 nM.

Same assay, conditions: Hepatitis C virus, 72 hours exposure, luciferase activity

`CC(C)CCC1(C)CN(C2CCC2)C(=O)C(C2=NS(=O)(=O)c3c(CNS(C)(=O)=O)csc3N2)=C1O` (racemic) [Example 20, rac-N-{3-[1-Cyclobutyl-4-hydroxy-5-methyl-5-(3-methyl-butyl)-2-oxo-1,2,5,6-tetrahydro-pyridin-3-yl]-1,1-dioxo-1,4-dihydro-1λ^6-thieno[2,3-e][1,2,4]thiadiazin-7-ylmethyl {-methanesulfonamide] was tested. Which EC50 did it give?
Its EC50 is 100 to 1000 nM.

For `CC(C)CCC1(C)CN(C2CCCC2)C(=O)C(C2=NS(=O)(=O)c3c(CNS(C)(=O)=O)csc3N2)=C1O` (racemic) [Example 21, rac-N-{3-[1-Cyclopentyl-4-hydroxy-5-methyl-5-(3-methyl-butyl)-2-oxo-1,2,5,6-tetrahydro-pyridin-3-yl]-1,1-dioxo-1,4-dihydro-1λ^6-thieno[2,3-e][1,2,4]thiadiazin-7-ylmethyl}-methanesulfonamide], which EC50 is on record?
The EC50 was 100 to 1000 nM.

Which EC50 does the source give for `CS(=O)(=O)NCc1csc2c1S(=O)(=O)N=C(C1=C(O)C3C4CCC(C5CC54)C3N(Cc3ccc(F)cc3)C1=O)N2` (racemic) [Example 22, (rac-di-endo)-N-{3-[3-(4-Fluoro-benzyl)-6-hydroxy-4-oxo-3-aza-tetracyclo[6.3.2.0^2,7.0^9,11]tridec-5-en-5-yl]-1,1-dioxo-1,4-dihydro-1λ^6-thieno[2,3-e][1,2,4]thiadiazin-7-ylmethyl}-methanesulfonamide] here?
Its EC50 is ≤ 5 nM.

With `CC(C)(C)CCN1C(=O)C(C2=NS(=O)(=O)c3c(CNS(C)(=O)=O)csc3N2)=C(O)C2C3CCC(C4CC43)C21` (racemic) [Example 24, (rac-di-endo)-N-{3-[3-(3,3-Dimethyl-butyl)-6-hydroxy-4-oxo-3-aza-tetracyclo[6.3.2.0^2,7.0^9,11]tridec-5-en-5-yl]-1,1-dioxo-1,4-dihydro-1λ^6-thieno[2,3-e][1,2,4]thiadiazin-7-ylmethyl}-methanesulfonamide] as the compound, how does the EC50 read?
The EC50 was ≤ 5 nM.

With `CS(=O)(=O)NCc1csc2c1S(=O)(=O)N=C(C1=C(O)C3CCCC3N(NC3CCC3)C1=O)N2` (racemic) [Example 27, (rac-cis)-N-[3-(1-cyclobutylamino-4-hydroxy-2-oxo-2,4a,5,6,7,7a-hexahydro-1H-[1]pyrindin-3-yl)-1,1-dioxo-1,4-dihydro-1λ^6-thieno[2,3-e][1,2,4]thiadiazin-7-ylmethyl]-methanesulfonamide] as the compound, how does the EC50 read?
The EC50 was > 1000 nM.

`CS(=O)(=O)NCc1csc2c1S(=O)(=O)N=C(C1=C(O)C3C4CC(C5CC54)C3N(Cc3ccc(F)cc3)C1=O)N2` (racemic) [Example 32, (rac-di-exo, di-exo)-N-{3-[3-(4-Fluoro-benzyl)-6-hydroxy-4-oxo-3-aza-tetracyclo[6.3.1.0^2,7.0^9,11]dodec-5-en-5-yl]-1,1-dioxo-1,4-dihydro-1λ^6-thieno[2,3-e][1,2,4]thiadiazin-7-ylmethyl}-methanesulfonamide] was tested. Which EC50 did it give?
The EC50 was ≤ 5 nM.

For `CS(=O)(=O)NCc1csc2c1S(=O)(=O)N=C(C1=C(O)C3C4CCC(O4)C3N(Cc3ccccc3)C1=O)N2` (racemic) [Example 45, (rac-di-exo)-N-[3-(3-Benzyl-6-hydroxy-4-oxo-11-oxa-3-aza-tricyclo[6.2.1.0^2,7]undec-5-en-5-yl)-1,1-dioxo-1,4-dihydro-1λ^6-thieno[2,3-e][1,2,4]thiadiazin-7-ylmethyl]-methanesulfonamide], which EC50 is on record?
The EC50 was 20 to 100 nM.

How did the EC50 turn out when `CS(=O)(=O)NCc1csc2c1S(=O)(=O)N=C(C1=C(O)C3C4C=CC(C4)C3N(Cc3ccccc3)C1=O)N2` (racemic) [Example 46, (rac-di-exo)-N-[3-(3-Benzyl-6-hydroxy-4-oxo-3-aza-tricyclo[6.2.1.0^2,7]undeca-5,9-dien-5-yl)-1,1-dioxo-1,4-dihydro-1λ^6-thieno[2,3-e][1,2,4]thiadiazin-7-ylmethyl]-methanesulfonamide] was run?
Its EC50 is ≤ 5 nM.

Which EC50 does the source give for `CS(=O)(=O)NCc1csc2c1S(=O)(=O)N=C(C1=C(O)C3C4C=CC(C4)C3N(Cc3ccc(F)cc3)C1=O)N2` (racemic) [Example 47, (rac-di-exo)-N-{3-[3-(4-Fluoro-benzyl)-6-hydroxy-4-oxo-3-aza-tricyclo[6.2.1.0^2,7]undeca-5,9-dien-5-yl]-1,1-dioxo-1,4-dihydro-1λ^6-thieno[2,3-e][1,2,4]thiadiazin-7-ylmethyl}-methanesulfonamide] here?
Its EC50 is ≤ 5 nM.

`CS(=O)(=O)NCc1csc2c1S(=O)(=O)N=C(C1=C(O)C3C4CCC(O4)C3N(Cc3ccsc3)C1=O)N2` (racemic) [Example 61, (rac-di-exo)-N-[3-(6-Hydroxy-4-oxo-3-thiophen-3-ylmethyl-11-oxa-3-aza-tricyclo[6.2.1.0^2,7]undec-5-en-5-yl)-1,1-dioxo-1,4-dihydro-1λ^6-thieno[2,3-e][1,2,4]thiadiazin-7-ylmethyl]-methanesulfonamide] was tested. Which EC50 did it give?
Its EC50 is 20 to 100 nM.

Which EC50 does the source give for `CC(C)(C)CCN1C(=O)C(C2=NS(=O)(=O)c3c(CNS(C)(=O)=O)csc3N2)=C(O)C2C3CCC(O3)C21` (racemic) [Example 62, (rac-di-exo)-N-{3-[3-(3,3-Dimethyl-butyl)-6-hydroxy-4-oxo-11-oxa-3-aza-tricyclo[6.2.1.0^2,7]undec-5-en-5-yl]-1,1-dioxo-1,4-dihydro-1λ^6-thieno[2,3-e][1,2,4]thiadiazin-7-ylmethyl}-methanesulfonamide] here?
The EC50 was 5 to 20 nM.

How did the EC50 turn out when `CC(C)CCN1C(=O)C(C2=NS(=O)(=O)c3c(CNS(C)(=O)=O)csc3N2)=C(O)C2C3CCC(O3)C21` (racemic) [Example 63, (rac-di-exo)-N-{3-[6-Hydroxy-3-(3-methyl-butyl)-4-oxo-11-oxa-3-aza-tricyclo[6.2.1.0^2,7]undec-5-en-5-yl]-1,1-dioxo-1,4-dihydro-1λ^6-thieno[2,3-e][1,2,4]thiadiazin-7-ylmethyl}-methanesulfonamide] was run?
The EC50 was 20 to 100 nM.

How did the EC50 turn out when `CS(=O)(=O)NCc1csc2c1S(=O)(=O)N=C(C1=C(O)C3C4C=CC(C4)C3N(Cc3ccsc3)C1=O)N2` (racemic) [Example 64, (rac-di-exo)-N-[3-(6-Hydroxy-4-oxo-3-thiophen-3-ylmethyl-3-aza-tricyclo[6.2.1.0^2,7]undeca-5,9-dien-5-yl)-1,1-dioxo-1,4-dihydro-1λ^6-thieno[2,3-e][1,2,4]thiadiazin-7-ylmethyl]-methanesulfonamide] was run?
Its EC50 is ≤ 5 nM.

Which EC50 does the source give for `CC(C)(C)CCN1C(=O)C(C2=NS(=O)(=O)c3c(CNS(C)(=O)=O)csc3N2)=C(O)C2C3C=CC(C3)C21` (racemic) [Example 65, (rac-di-exo)-N-{3-[3-(3,3-Dimethyl-butyl)-6-hydroxy-4-oxo-3-aza-tricyclo[6.2.1.0^2,7]undeca-5,9-dien-5-yl]-1,1-dioxo-1,4-dihydro-1λ^6-thieno[2,3-e][1,2,4]thiadiazin-7-ylmethyl}-methanesulfonamide] here?
Its EC50 is ≤ 5 nM.

For `CC(C)CCN1C(=O)C(C2=NS(=O)(=O)c3c(CNS(C)(=O)=O)csc3N2)=C(O)C2C3C=CC(C3)C21` (racemic) [Example 66, (rac-di-exo)-N-{3-[6-Hydroxy-3-(3-methyl-butyl)-4-oxo-3-aza-tricyclo[6.2.1.0^2,7]undeca-5,9-dien-5-yl]-1,1-dioxo-1,4-dihydro-1λ^6-thieno[2,3-e][1,2,4]thiadiazin-7-ylmethyl}-methanesulfonamide], which EC50 is on record?
The EC50 was 5 to 20 nM.

Which EC50 does the source give for `COc1ccc(CN2C(=O)C(C3=NS(=O)(=O)c4c(CNS(C)(=O)=O)csc4N3)=C(O)C3C4CCC(O4)C32)c(OC)c1` (racemic) [Example 75, (rac-di-exo)-N-{3-[3-(2,4-Dimethoxy-benzyl)-6-hydroxy-4-oxo-11-oxa-3-aza-tricyclo[6.2.1.0^2,7]undec-5-en-5-yl]-1,1-dioxo-1,4-dihydro-1λ^6-thieno[2,3-e][1,2,4]thiadiazin-7-ylmethyl}-methanesulfonamide] here?
The EC50 was > 1000 nM.

`COc1ccc(CN2C(=O)C(C3=NS(=O)(=O)c4c(CNS(C)(=O)=O)csc4N3)=C(O)C3C4C=CC(C4)C32)c(OC)c1` (racemic) [Example 76, (rac-di-exo)-N-{3-[3-(2,4-Dimethoxy-benzyl)-6-hydroxy-4-oxo-3-aza-tricyclo[6.2.1.0^2,7]undeca-5,9-dien-5-yl]-1,1-dioxo-1,4-dihydro-1λ^6-thieno[2,3-e][1,2,4]thiadiazin-7-ylmethyl}-methanesulfonamide] was tested. Which EC50 did it give?
The EC50 was > 1000 nM.

With `COc1ccc(CN2C(=O)C(C3=NS(=O)(=O)c4c(CNS(C)(=O)=O)csc4N3)=C(O)C3CCCCC32)c(OC)c1` (racemic) [Example 78, (rac-cis)-N-{3-[1-(2,4-Dimethoxy-benzyl)-4-hydroxy-2-oxo-1,2,4a,5,6,7,8,8a-octahydro-quinolin-3-yl]-1,1-dioxo-1,4-dihydro-1λ^6-thieno[2,3-e][1,2,4]thiadiazin-7-ylmethyl}-methanesulfonamide] as the compound, how does the EC50 read?
Its EC50 is > 1000 nM.

— US8222404B2, “[1,2,4]Thiadiazin-3-yl acetic acid compound and methods of making the acetic acid compound” (Anadys Pharmaceuticals, Inc., priority 2008, dated 2012)
